Laboratory results from ChEMBL document CHEMBL1201862, “PubChem BioAssay data set” (2004).
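Following 48 hours of exposure in 96-well plates, responses at five concentrations were used to interpolate endpoints linearly. The concentration for 50% growth inhibition is given as GI50.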 The source made the active and inactive calls. No stated cut-off is given here; in the data, active = GI50 up to about 1.1 µM and inactive = higher.

Key:
Assay in all cases: DTP human tumour cell line panel, 48 h
[1] = system: A498
[2] = system: DLD-1
[3] = system: HOP-18
[4] = system: KM-20L2
[5] = system: M19-MEL
[6] = system: MCF7
[7] = system: MOLT-4
[8] = system: NCI-H460
[9] = system: OVCAR-3
[10] = system: OVCAR-4
[11] = system: RPMI-8226
[12] = system: SF-539
[13] = system: SK-MEL-2
[14] = system: SK-OV-3
[15] = system: SNB-19
[16] = system: LXFL 529
[17] = system: SR
[18] = system: TK-10

Structure (SMILES)	GI50 [1]	GI50 [2]	GI50 [3]	GI50 [4]	GI50 [5]	GI50 [6]	GI50 [7]	GI50 [8]	GI50 [9]	GI50 [10]	GI50 [11]	GI50 [12]	GI50 [13]	GI50 [14]	GI50 [15]	GI50 [16]	GI50 [17]	GI50 [18]
CC1(CO)C(O)CCC2(C)C1C(O)CC1CC3CC12CCC3(O)CO (configuration not stated)	> 225 µM (inactive)	> 225 µM (inactive)	> 225 µM (inactive)	> 225 µM (inactive)	> 153 µM (inactive)	> 217 µM (inactive)	> 96.6 µM (inactive)	77.1 µM (inactive)	> 225 µM (inactive)	> 225 µM (inactive)	> 158 µM (inactive)	> 225 µM (inactive)	> 225 µM (inactive)	> 225 µM (inactive)	> 225 µM (inactive)	–	–	–
Cc1cc(OCC(O)CO)ccc1Cl (configuration not stated)	> 100 µM (inactive)	> 100 µM (inactive)	> 100 µM (inactive)	> 100 µM (inactive)	> 100 µM (inactive)	–	> 100 µM (inactive)	> 100 µM (inactive)	> 100 µM (inactive)	> 100 µM (inactive)	> 100 µM (inactive)	> 100 µM (inactive)	> 100 µM (inactive)	> 100 µM (inactive)	> 100 µM (inactive)	> 100 µM (inactive)	60.1 µM (inactive)	> 100 µM (inactive)
N#CCCN(CCC#N)c1ccc(/C=C2\N=C(c3cc([N+](=O)[O-])ccc3Cl)N(NC(=O)CC(=O)Nc3ccccc3Cl)C2=O)cc1	–	> 100 µM (inactive)	–	16.3 µM (inactive)	> 100 µM (inactive)	–	> 100 µM (inactive)	–	> 100 µM (inactive)	> 100 µM (inactive)	> 100 µM (inactive)	> 100 µM (inactive)	> 100 µM (inactive)	> 100 µM (inactive)	> 100 µM (inactive)	> 100 µM (inactive)	> 100 µM (inactive)	> 100 µM (inactive)
O=[N+]([O-])c1ccc(CNC2=NNS(=O)(=O)c3ccccc32)cc1	32.1 µM (inactive)	> 100 µM (inactive)	–	> 100 µM (inactive)	> 100 µM (inactive)	–	22.3 µM (inactive)	> 100 µM (inactive)	> 100 µM (inactive)	> 100 µM (inactive)	34.5 µM (inactive)	> 100 µM (inactive)	> 100 µM (inactive)	–	> 100 µM (inactive)	36.1 µM (inactive)	31.6 µM (inactive)	–
COc1ccc(NC(=O)/C(=C/c2ccc(N(CCC#N)CCC#N)cc2)NC(=O)c2cc([N+](=O)[O-])ccc2Cl)cc1	–	15.3 µM (inactive)	> 100 µM (inactive)	36.2 µM (inactive)	56.4 µM (inactive)	–	83.8 µM (inactive)	–	94.4 µM (inactive)	> 100 µM (inactive)	> 100 µM (inactive)	18.9 µM (inactive)	56.1 µM (inactive)	> 100 µM (inactive)	> 100 µM (inactive)	8.89 µM (inactive)	74.1 µM (inactive)	66.1 µM (inactive)
Cn1c2c(c3ccccc31)CCN(CCCN1CCN(c3ccccc3)CC1)C2=O	18.5 µM (inactive)	19.7 µM (inactive)	15.5 µM (inactive)	12.8 µM (inactive)	19.5 µM (inactive)	–	13.3 µM (inactive)	–	–	–	16 µM (inactive)	17.6 µM (inactive)	–	19.9 µM (inactive)	–	17.9 µM (inactive)	–	16.9 µM (inactive)
[N-]=[N+]=NC1(Cc2ccccc2)C(=O)Nc2ccccc2C1=O (configuration not stated)	> 100 µM (inactive)	> 100 µM (inactive)	> 100 µM (inactive)	> 100 µM (inactive)	> 100 µM (inactive)	–	> 100 µM (inactive)	> 100 µM (inactive)	91.6 µM (inactive)	> 100 µM (inactive)	–	> 100 µM (inactive)	> 100 µM (inactive)	> 100 µM (inactive)	> 100 µM (inactive)	> 100 µM (inactive)	> 100 µM (inactive)	> 100 µM (inactive)
C=C1CCCC2[C@](C)(CC3=C(O)C(=O)C=C(OC)C3=O)[C@@H](C)CC[C@]12C (some centres not stated)	6.27 µM (inactive)	7.18 µM (inactive)	1.7 µM (inactive)	4.24 µM (inactive)	1.81 µM (inactive)	–	–	2.8 µM (inactive)	3.53 µM (inactive)	5.65 µM (inactive)	2.74 µM (inactive)	2.79 µM (inactive)	2.45 µM (inactive)	12.6 µM (inactive)	–	6.04 µM (inactive)	–	7.16 µM (inactive)
O=C1C=C2SC3C[C@@]24CC1(O)[N+]1=c2c4c(c(O)c4c2=C(C=N4)CC1)N3	1.88 µM (inactive)	1.11 µM (active)	2.43 µM (inactive)	0.313 µM (active)	0.285 µM (active)	0.278 µM (active)	0.268 µM (active)	2.07 µM (inactive)	0.206 µM (active)	1.26 µM (inactive)	0.457 µM (active)	1.51 µM (inactive)	1.44 µM (inactive)	1.95 µM (inactive)	1.74 µM (inactive)	–	–	–
COc1cc(CCc2ccc(N)cc2)cc(OC)c1OC	56.1 µM (inactive)	> 100 µM (inactive)	> 71 µM (inactive)	44.2 µM (inactive)	55.8 µM (inactive)	–	36.9 µM (inactive)	55.1 µM (inactive)	41.1 µM (inactive)	63.5 µM (inactive)	64.6 µM (inactive)	26.1 µM (inactive)	27.8 µM (inactive)	> 91.4 µM (inactive)	> 100 µM (inactive)	59 µM (inactive)	–	> 74.3 µM (inactive)
